From paper PMC9181987, “Disclosing the Potential of Fluorinated Ionic Liquids as Interferon-Alpha 2b Delivery Systems” (Nanomaterials, 2022)

Tests used:
[1] = cited from earlier work
IFN-α 2b [2] = target: T1, IFN-α 2b (Homo sapiens, UniProt P01563); test: Microscale thermophoresis (MST) binding affinity of FILs with labelled IFN-α 2b; details: for Kd: labelled IFN-α 2b 2.7 μM, 5 mM NaH2PO4 pH 7.4, 25 °C, ± = Kd confidence of the fitting
T1 construct: purchased Sigma-Aldrich SRP4595; host or cells: E. coli
T1 sequence (P01563 24-188): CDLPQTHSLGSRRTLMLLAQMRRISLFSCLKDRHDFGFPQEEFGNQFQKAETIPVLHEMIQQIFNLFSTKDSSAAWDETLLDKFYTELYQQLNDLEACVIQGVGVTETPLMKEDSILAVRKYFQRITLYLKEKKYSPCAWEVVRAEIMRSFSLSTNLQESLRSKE
Protocol: Several dilution series of 16 samples of 20 μL were prepared in triplicate for each studied system. All the solutions were prepared in the buffer of the protein, 5 mM of NaH2PO4 (pH = 7.4), and PCR tubes. In the first tube (1 out 16) 20 μL of FIL stock solution was added at twofold the maximum concentration defined for each assay. In the remaining 15 tubes, 10 μL of buffer was added, followed by the series dilution of the FIL. […] The selected concentrations cover the range where the distinct CACs are formed in each FIL. The excitation power was determined by a pre-test and set to 20% whereas the MST power was set to medium (standard). The assays were executed in standard capillaries and triplicates. The results were processed using the MO.Affinity Analysis v2.3 software (NanoTemper Technologies, Munich, Germany).
In the process of labelling, commonly, one amine per protein is labelled, statistically distributing the position of the dye. […] As explained in the experimental section, in each run of MST, a maximum concentration is chosen and is consecutively diluted in 16 capillaries.

IFN-α 2b [3] = target: T1, IFN-α 2b; test: Intrinsic fluorescence spectroscopy of IFN-α 2b with FILs (λmax shift, Stern–Volmer quenching); type: binding
Protocol: The concentrations were chosen to cover the range where the different aggregates of the FILs are formed. Samples, equilibrated for 30 min at room temperature, and 400 μL of each solution were transferred to a quartz cuvette of 10 mm pathlength and excited at 280 nm, collecting the fluorescence intensity in a wavelength range of 300 to 450 nm. The width of the excitation and emission slit was set to 5 nm for both cases. The spectra of FIL solutions (blanks) were discounted to the spectra of FIL + protein samples to avoid any possible effect of FIL concentration increment in the fluorescence intensity.
A very well-known equation, the Stern–Volmer, was used to characterize the quenching occurring in this region. This equation characterizes the collisional quenching that can occur when the excited state of the fluorophore is disabled due to contact with another molecule (quencher), without chemical alteration. Therefore, the collisional quenching is described by:(11) F0/F=1+K[Q]=1+kqτ0[Q] where F0 and F are the fluorescence intensities of the fluorophore in the absence and presence of the quencher, respectively, K is the Stern–Volmer quenching constant, kq is the biomolecular quenching constant, τ0 is the unquenched lifetime, and [Q] is the quencher concentration. […] This value gives information on the sensitivity of the fluorophore to a quencher.

[4] = Dynamic light scattering: aggregate size and polydispersity index; type: physicochemical; details: 150 mM NaH2PO4, 25°C
Protocol: These concentrations were chosen to comprise two different aggregates of each FIL, above the 1st CAC and the 3rd CAC. […] Therefore, 20 μL was transferred into a quartz cell of 10 mm pathlength and measured at 25 °C.
Moreover, the polydispersity index (PdI) was obtained by DLS which determines the heterogeneity of the sample in the function of the size.

[5] = parameters: method as in doi:10.5772/INTECHOPEN.96336, doi:10.1016/j.molliq.2022.119285, PMID 25580898; details: cited from earlier work

For `CCn1cc[n+](C)c1.O=S(=O)([O-])C(F)(F)C(F)(F)C(F)(F)C(F)(F)F` [[C2C1Im][C4F9SO3], 1-Ethyl-3-methylimidazolium perfluorobutanesulfonate], the toxicity [1] is listed as “negligible toxicity”, the Kd (IFN-α 2b [2]; assay 30 − 9.2 × 10^−4 mM FIL) is listed as 0.136 ± 0.117 mM and the Kd (IFN-α 2b [2]; assay 80 − 2.4 × 10^−3 mM FIL) is listed as 7.53 ± 5.61 mM. The Kd (IFN-α 2b [2]; assay 160 − 4.9 × 10^−3 mM FIL) was 40.5 ± 29.5 mM, the “binding to IFN-α 2b (MST)” value (IFN-α 2b [2]; range of concentrations under the 1st CAC, only FIL monomers) was “no binding was detected” and the “Stern–Volmer quenching constant K” value (IFN-α 2b [3]; IFN-α 2b 20 μg/mL, region ~14 mM to ~110 mM FIL, 5 mM NaH2PO4 pH 7.4, excitation 280 nm) was 0.0106 mM⁻¹. For the same compound, the “biomolecular quenching constant kq” value (IFN-α 2b [3]; from K and τ0 of IFN-α 2b) was 3.59e+09 M⁻¹ s⁻¹, the “Polydispersity index (PdI)” value ([4]; 29.3 mM FIL) was 1.000 and the “Polydispersity index (PdI)” value ([4]; 243.8 mM FIL) was 0.157. The miscibility in water [5] was “full miscibility in water”.
